Columns and labels:
Assay in all cases: KINOMEscan competition binding
AAK1 = AAK1 (Homo sapiens, UniProt Q2M2I8); details: read-out: %Inh AAK1
DAPK2 = DAPK2 (Homo sapiens, UniProt Q9UIK4); details: read-out: %Inh DAPK2
FGFR1 = FGFR1 (Homo sapiens, UniProt P11362); details: read-out: %Inh FGFR1
BRK = BRK (Homo sapiens, UniProt Q13882); details: read-out: %Inh BRK
FLT1 = FLT1 (Homo sapiens, UniProt P17948); details: read-out: %Inh FLT1
ERBB4 = ERBB4 (Homo sapiens, UniProt Q15303); details: read-out: %Inh ERBB4
CHEK1 = target: T1, CHEK1 (Homo sapiens, UniProt O14757); details: read-out: %Inh CHEK1
T1 sequence (O14757 1-476): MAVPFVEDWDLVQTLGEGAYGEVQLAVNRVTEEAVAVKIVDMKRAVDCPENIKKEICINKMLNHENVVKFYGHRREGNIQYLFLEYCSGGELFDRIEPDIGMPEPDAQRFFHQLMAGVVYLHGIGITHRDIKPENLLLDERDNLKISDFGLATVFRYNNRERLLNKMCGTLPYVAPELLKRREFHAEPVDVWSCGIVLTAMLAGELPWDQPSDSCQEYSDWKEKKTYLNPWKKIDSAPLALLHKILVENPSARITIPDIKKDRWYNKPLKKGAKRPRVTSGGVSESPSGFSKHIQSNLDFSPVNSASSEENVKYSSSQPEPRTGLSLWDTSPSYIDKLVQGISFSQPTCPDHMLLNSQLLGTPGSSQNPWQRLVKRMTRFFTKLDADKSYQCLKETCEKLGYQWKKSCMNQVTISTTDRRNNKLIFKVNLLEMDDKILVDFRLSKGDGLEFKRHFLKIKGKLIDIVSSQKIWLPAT

CDK9 = CDK9 (Homo sapiens, UniProt P50750); details: read-out: %Inh CDK9
GRK2 = target: T2, GRK2 (Homo sapiens, UniProt P25098); details: read-out: %Inh GRK2
T2 sequence (P25098 1-689): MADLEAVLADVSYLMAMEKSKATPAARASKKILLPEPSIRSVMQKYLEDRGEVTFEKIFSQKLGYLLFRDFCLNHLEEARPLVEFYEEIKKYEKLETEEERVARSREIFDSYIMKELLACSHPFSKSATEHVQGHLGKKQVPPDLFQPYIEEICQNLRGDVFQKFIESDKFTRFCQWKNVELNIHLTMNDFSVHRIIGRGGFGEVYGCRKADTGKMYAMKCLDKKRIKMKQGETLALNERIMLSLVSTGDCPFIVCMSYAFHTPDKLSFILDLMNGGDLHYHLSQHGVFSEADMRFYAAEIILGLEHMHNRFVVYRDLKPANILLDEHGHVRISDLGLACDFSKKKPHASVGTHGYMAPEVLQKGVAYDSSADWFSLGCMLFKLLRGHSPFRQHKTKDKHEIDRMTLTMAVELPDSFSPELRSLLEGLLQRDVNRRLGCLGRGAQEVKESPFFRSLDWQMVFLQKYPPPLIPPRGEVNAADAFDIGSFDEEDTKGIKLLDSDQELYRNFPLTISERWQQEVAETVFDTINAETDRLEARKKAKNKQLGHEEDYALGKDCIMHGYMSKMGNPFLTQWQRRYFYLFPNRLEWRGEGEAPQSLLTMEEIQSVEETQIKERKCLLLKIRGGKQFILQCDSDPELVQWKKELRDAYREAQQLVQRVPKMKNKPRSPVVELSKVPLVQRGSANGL

JNK3 = JNK3 (Homo sapiens, UniProt P53779); details: read-out: %Inh JNK3
CDK11 = CDK11 (Homo sapiens, UniProt Q9BWU1); details: read-out: %Inh CDK11
ERK2 = ERK2 (Homo sapiens, UniProt P28482); details: read-out: %Inh ERK2
Sequence of ERK2 (P28482 whole entry): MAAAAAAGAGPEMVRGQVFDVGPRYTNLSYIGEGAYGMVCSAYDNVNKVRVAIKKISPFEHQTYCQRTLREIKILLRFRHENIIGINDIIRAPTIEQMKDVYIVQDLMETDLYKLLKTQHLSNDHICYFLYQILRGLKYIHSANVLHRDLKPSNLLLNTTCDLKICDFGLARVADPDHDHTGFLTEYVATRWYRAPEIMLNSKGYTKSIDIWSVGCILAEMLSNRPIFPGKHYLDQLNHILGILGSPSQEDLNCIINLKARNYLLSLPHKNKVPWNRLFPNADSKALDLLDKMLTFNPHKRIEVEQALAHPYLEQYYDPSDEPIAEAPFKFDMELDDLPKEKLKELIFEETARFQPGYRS

CSF1R = CSF1R (Homo sapiens, UniProt P07333); details: read-out: %Inh CSF1R
CDK8 = CDK8 (Homo sapiens, UniProt P49336); details: read-out: %Inh CDK8
LTK = LTK (Homo sapiens, UniProt P29376); details: read-out: %Inh LTK
Sequence of LTK (P29376 17-864): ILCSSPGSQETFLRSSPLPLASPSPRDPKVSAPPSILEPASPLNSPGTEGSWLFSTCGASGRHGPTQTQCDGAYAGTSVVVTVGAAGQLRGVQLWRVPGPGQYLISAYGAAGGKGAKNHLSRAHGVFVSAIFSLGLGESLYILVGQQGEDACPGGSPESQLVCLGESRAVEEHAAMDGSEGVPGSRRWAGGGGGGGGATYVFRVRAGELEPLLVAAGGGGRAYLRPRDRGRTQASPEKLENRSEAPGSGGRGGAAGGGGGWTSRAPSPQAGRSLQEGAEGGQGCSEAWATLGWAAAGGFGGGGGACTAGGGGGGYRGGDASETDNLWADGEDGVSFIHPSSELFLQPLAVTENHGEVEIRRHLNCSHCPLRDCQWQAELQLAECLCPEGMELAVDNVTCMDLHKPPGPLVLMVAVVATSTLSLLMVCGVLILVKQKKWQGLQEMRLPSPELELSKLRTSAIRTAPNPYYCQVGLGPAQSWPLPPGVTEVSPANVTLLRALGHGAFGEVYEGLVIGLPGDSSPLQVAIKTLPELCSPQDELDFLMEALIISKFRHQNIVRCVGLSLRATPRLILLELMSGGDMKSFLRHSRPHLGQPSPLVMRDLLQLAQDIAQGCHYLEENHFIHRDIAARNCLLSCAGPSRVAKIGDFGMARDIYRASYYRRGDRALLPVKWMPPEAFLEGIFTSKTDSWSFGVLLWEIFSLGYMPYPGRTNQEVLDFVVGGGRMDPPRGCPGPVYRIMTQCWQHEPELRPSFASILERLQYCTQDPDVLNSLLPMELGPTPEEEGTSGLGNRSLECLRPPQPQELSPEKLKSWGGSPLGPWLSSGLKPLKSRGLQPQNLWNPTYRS

LIMK1 = LIMK1 (Homo sapiens, UniProt P53667); details: read-out: %Inh LIMK1
Sequence of LIMK1 (P53667 whole entry): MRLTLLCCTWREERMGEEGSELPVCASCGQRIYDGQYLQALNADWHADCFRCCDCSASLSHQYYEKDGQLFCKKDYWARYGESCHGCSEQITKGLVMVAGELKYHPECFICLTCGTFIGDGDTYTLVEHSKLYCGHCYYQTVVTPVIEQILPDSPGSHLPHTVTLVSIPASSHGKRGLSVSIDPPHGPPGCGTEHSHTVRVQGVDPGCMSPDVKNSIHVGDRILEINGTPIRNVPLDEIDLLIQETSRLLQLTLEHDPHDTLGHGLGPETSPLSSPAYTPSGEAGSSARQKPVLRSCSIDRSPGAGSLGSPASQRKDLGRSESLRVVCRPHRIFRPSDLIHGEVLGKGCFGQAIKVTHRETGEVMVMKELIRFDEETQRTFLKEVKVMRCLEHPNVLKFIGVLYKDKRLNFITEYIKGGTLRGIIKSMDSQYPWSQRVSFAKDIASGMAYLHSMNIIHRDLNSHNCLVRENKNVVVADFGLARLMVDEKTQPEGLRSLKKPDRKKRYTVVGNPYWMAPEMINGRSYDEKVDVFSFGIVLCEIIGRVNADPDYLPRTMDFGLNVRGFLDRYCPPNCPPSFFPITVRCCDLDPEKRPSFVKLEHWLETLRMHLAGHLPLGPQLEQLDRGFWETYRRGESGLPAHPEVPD

JNK2 = JNK2 (Homo sapiens, UniProt P45984); details: read-out: %Inh JNK2
DRAK1 = target: T3, DRAK1 (Homo sapiens, UniProt Q9UEE5); details: read-out: %Inh DRAK1
T3 sequence (Q9UEE5 1-414): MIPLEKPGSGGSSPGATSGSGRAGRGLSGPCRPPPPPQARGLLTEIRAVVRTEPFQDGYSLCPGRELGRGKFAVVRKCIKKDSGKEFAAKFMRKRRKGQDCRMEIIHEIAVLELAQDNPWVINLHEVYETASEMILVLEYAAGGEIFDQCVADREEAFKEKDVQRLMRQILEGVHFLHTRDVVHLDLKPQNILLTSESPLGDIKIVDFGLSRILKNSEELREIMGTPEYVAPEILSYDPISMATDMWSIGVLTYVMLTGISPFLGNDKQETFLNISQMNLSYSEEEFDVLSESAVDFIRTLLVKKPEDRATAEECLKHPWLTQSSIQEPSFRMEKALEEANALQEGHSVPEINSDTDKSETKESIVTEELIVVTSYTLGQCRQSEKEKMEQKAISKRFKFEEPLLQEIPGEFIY

Sequence of BRK (Q13882 whole entry): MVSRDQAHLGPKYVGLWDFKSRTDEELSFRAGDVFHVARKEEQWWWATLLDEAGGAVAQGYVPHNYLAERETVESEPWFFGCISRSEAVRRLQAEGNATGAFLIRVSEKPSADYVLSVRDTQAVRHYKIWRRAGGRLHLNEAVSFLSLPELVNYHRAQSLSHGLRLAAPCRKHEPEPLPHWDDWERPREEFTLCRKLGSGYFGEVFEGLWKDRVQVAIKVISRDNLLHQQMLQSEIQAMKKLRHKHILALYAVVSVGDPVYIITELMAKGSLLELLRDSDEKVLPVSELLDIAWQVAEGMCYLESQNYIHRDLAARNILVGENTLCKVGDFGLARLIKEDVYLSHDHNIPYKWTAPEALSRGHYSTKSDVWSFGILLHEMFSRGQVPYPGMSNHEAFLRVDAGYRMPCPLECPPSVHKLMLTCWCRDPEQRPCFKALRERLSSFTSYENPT
Sequence of FLT1 (P17948 27-1338): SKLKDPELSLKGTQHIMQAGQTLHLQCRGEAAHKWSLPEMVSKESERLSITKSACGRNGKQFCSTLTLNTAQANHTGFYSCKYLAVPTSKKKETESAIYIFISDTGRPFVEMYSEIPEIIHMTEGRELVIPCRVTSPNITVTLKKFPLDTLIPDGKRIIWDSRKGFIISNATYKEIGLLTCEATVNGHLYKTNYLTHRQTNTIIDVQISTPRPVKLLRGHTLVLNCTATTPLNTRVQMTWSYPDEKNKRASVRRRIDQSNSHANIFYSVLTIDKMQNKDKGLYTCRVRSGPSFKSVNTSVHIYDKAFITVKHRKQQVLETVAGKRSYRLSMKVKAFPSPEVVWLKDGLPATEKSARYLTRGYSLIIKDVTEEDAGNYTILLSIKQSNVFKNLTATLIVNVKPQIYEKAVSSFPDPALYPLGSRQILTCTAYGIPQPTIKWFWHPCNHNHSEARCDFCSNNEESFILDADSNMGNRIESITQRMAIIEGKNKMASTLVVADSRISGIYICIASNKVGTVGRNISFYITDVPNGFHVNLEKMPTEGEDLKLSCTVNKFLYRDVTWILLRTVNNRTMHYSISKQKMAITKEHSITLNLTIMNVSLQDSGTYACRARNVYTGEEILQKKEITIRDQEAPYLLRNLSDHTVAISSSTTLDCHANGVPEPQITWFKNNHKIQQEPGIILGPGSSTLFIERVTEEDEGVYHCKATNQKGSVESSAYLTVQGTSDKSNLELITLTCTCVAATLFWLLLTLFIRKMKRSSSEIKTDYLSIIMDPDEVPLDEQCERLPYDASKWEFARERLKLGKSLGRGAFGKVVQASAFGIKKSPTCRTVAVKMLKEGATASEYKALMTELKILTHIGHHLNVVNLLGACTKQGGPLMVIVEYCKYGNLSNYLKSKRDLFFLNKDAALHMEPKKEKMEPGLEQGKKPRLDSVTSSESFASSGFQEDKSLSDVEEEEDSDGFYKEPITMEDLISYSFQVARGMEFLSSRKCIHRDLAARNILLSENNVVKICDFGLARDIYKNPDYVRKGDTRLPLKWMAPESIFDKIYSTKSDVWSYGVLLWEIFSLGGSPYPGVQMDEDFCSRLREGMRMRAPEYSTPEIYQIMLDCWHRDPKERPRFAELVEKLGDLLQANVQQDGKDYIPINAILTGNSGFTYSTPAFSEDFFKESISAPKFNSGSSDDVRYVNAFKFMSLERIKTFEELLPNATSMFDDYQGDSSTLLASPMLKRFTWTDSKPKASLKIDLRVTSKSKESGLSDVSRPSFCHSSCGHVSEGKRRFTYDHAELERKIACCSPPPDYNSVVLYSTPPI
Sequence of DAPK2 (Q9UIK4 whole entry): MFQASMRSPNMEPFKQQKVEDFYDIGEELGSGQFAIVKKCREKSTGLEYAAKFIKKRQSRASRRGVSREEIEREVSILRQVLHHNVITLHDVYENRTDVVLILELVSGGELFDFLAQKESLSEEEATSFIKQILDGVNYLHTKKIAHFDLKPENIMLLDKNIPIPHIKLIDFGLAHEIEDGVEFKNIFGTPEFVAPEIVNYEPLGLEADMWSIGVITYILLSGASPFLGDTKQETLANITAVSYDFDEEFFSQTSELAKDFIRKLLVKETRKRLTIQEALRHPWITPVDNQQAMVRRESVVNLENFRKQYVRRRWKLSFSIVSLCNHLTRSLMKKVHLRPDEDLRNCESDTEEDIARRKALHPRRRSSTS
Sequence of AAK1 (Q2M2I8 whole entry): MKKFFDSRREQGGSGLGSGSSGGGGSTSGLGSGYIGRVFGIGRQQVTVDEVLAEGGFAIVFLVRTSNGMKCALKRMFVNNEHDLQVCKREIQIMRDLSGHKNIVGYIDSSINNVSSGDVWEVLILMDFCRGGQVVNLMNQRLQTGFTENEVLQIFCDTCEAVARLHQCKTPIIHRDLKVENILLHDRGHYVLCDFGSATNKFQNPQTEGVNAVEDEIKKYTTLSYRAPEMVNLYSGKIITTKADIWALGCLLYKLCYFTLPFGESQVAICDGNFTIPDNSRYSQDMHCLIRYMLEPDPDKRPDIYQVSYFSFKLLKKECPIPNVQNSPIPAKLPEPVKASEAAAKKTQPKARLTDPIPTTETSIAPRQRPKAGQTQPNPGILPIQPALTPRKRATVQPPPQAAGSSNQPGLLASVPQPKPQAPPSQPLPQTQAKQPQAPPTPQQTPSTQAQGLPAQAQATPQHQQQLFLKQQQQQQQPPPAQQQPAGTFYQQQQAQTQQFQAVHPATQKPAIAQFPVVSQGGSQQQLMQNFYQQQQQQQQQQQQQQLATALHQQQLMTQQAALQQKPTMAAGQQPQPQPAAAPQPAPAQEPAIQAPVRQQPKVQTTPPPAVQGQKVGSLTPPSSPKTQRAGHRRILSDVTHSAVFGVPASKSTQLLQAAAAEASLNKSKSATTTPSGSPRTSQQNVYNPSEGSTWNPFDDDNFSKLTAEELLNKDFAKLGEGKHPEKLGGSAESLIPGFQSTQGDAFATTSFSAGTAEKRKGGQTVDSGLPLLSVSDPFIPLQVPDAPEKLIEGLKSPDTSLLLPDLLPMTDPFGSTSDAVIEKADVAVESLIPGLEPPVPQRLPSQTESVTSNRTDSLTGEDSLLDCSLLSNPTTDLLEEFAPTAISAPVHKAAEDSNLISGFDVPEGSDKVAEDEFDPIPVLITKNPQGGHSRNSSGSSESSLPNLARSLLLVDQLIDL

| Compound | inhibition at 1 µM (AAK1) | inhibition at 1 µM (DAPK2) | inhibition at 1 µM (FGFR1) | inhibition at 1 µM (BRK) | inhibition at 1 µM (FLT1) | inhibition at 1 µM (ERBB4) | inhibition at 1 µM (CHEK1) | inhibition at 1 µM (CDK9) | inhibition at 1 µM (GRK2) | inhibition at 1 µM (JNK3) | inhibition at 1 µM (CDK11) | inhibition at 1 µM (ERK2) | inhibition at 1 µM (CSF1R) | inhibition at 1 µM (CDK8) | inhibition at 1 µM (LTK) | inhibition at 1 µM (LIMK1) | inhibition at 1 µM (JNK2) | inhibition at 1 µM (DRAK1) |
| --- | --- | --- | --- | --- | --- | --- | --- | --- | --- | --- | --- | --- | --- | --- | --- | --- | --- | --- |
| CS(=O)(=O)Cc1ccc(Nc2nccc(-c3c(-c4cccc(NC(=O)C5CCCCC5)c4)nn4ncccc34)n2)cc1 [UNC10225159A] | 0% | 9% | 0% | 2% | 63% | 74% | 12% | 0% | 44% | 36% | 0% | 0% | 79% | 0% | 0% | 22% | 49% | 0% |
| Cn1cc(-c2cnc(N)c3c(-c4ccc5c(c4)CCN5C(=O)Cc4ccccc4)csc23)cn1 [UNC10225012A] | 0% | 21% | 28% | 92.2% | 79% | 0% | 9% | 0% | 0% | 0% | 18% | 0% | 99.9% | 19% | 0% | 49% | 0% | 0% |
| O=c1cc(N2CCOCC2)nc2n(Cc3cccc(Cl)c3Cl)c(C3CC3)nn12 [UNC10225469A] | 14% | 12% | 0% | 0% | 6% | 0% | 15% | 0% | 0% | 0% | 0% | 11% | 0% | 0% | 0% | 9% | 0% | 11% |
| COc1cccc(OC)c1C(=O)Nc1cccc(-c2nn3ccccc3c2-c2ccnc(Nc3cccc(F)c3)n2)c1 [UNC10225310A] | 0% | 6% | 11% | 19% | 32% | 84% | 13% | 0% | 0% | 0% | 0% | 6% | 60% | 0% | 13% | 31% | 0% | 12% |
| Cc1ccc(NC(=O)Nc2cccc(C(F)(F)F)c2)cc1 [UNC10225187A] | 26% | 3% | 1% | 0% | 23% | 0% | 5% | 0% | 0% | 46% | 20% | 0% | 0% | 0% | 0% | 0% | 26% | 15% |

From paper PMC5540273, “Progress towards a public chemogenomic set for protein kinases and a call for contributions” (PLoS ONE, 2017)
